Results published in patent US11000033B2, “Ketone or oxime compound, and herbicide” (NISSAN CHEMICAL CORPORATION, priority 2014, dated 2021).

Key:
Format in all cases: in vivo
Monochoria vaginalis = assay: Test Example 2: herbicidal activity, application during weed generation in submerged conditions (symbol C); conditions: Table 23; application herbicide amount 320 g/ha; grade 0-5 by criteria of Test Example 1
In short: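 Scoring of herbicidal effect took place 3 weeks after treatment, using the criteria of the earlier test. Treatment was water-surface application of diluted emulsifiable compound at a set dose. Plants were at one- to two-leaf stage in submerged alluvial soil (4 cm depth), greenhouse 25-30° C.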

Cyperus difformis = assay: Test Example 3: herbicidal effect by foliage application, Wagner pot (symbol E); conditions: application herbicide amount 320 g/ha
In short: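 Foliar spray of a water-diluted emulsion at a predetermined herbicide amount, applied to 14-day-old plants. Seedlings were raised in flooded alluvial soil (0.1–0.5 cm water) at 25–30 °C in a greenhouse. Injury was rated after 3 weeks against fixed criteria.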

[1] = tested on: directly sowed rice plant; assay: Test Example 3: effect on crop by foliage application, Wagner pot (symbol b); conditions: application herbicide amount 320 g/ha
In short: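 Plants are raised from seed in flooded paddy conditions: water stands 0.1–0.5 cm over alluvial soil, and the pot is kept in a greenhouse at 25–30 °C. Species sown are barnyardgrass (E. crus-galli var. crus-galli), Leptochloa chinensis, Cyperus difformis and rice.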

Setaria viridis = assay: Test Example 4: herbicidal effect by soil treatment (symbol G); conditions: for G: Setaria viridis, herbicidal effect grade: 320 g/ha
In short: (§1)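 Seeds were sown in sterilized diluvial soil, covered with about 1.5 cm of soil, and the soil surface was sprayed with a water-diluted emulsion of the compound at a predetermined rate. Plants grew in a greenhouse at 25° C. to 30° C.; effects were scored visually 3 weeks after application.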

Apera spica-venti = assay: Test Example 4: herbicidal effect by soil treatment (symbol L); conditions: for L: Apera spica-venti, herbicidal effect grade: 320 g/ha
In short: as §1

Abutilon theophrasti = assay: Test Example 4: herbicidal effect by soil treatment (symbol M); conditions: for M: Abutilon theophrasti, herbicidal effect grade: 320 g/ha
In short: as §1

Amaranthus retroflexus = assay: Test Example 4: herbicidal effect by soil treatment (symbol N); conditions: for N: Amaranthus retroflexus, herbicidal effect grade: 320 g/ha
In short: as §1

Stellaria media = assay: Test Example 4: herbicidal effect by soil treatment (symbol P); conditions: for P: Stellaria media, herbicidal effect grade: 320 g/ha
In short: as §1

rice = assay: Test Example 4: effect on crop by soil treatment (symbol b); conditions: for b: directly sowed rice plant, effect grade on crop: 320 g/ha
In short: (§2)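 Diluvial soil (sterilized) in boxes; seeds placed spot-wise alongside weed species; ~1.5 cm covering soil. Greenhouse, 25–30° C.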

wheat [2] = assay: Test Example 4: effect on crop by soil treatment (symbol e); conditions: for e: wheat, effect grade on crop: 320 g/ha
In short: as §2

Digitaria ciliaris = assay: Test Example 5: herbicidal effect by foliage application, plastic box (symbol F); conditions: 320 g/ha, 3 weeks after application
In short: (§3)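 Leaf-applied emulsion, water-diluted to a preset herbicide dose, on two-week-old seedlings raised in a 25° C. to 30° C. greenhouse; injury rated at 3 weeks using earlier criteria.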

Avena fatua = assay: Test Example 5: herbicidal effect by foliage application, plastic box (symbol I); conditions: 320 g/ha, 3 weeks after application
In short: as §3

Alopecurus myosuroides = assay: Test Example 5: herbicidal effect by foliage application, plastic box (symbol J); conditions: 320 g/ha, 3 weeks after application
In short: as §3

soybean = assay: Test Example 5: effect on crop by foliage application, plastic box (symbol d); conditions: 320 g/ha, 3 weeks after application
In short: (§4)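 Greenhouse test at 25° C. to 30° C. Seeds of crops and weeds were spot-sown in boxes of sterilized diluvial soil under roughly 1.5 cm soil cover, then grown for foliage treatment.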

wheat [3] = assay: Test Example 5: effect on crop by foliage application, plastic box (symbol e); conditions: 320 g/ha, 3 weeks after application
In short: as §4

beet = assay: Test Example 5: effect on crop by foliage application, plastic box (symbol f); conditions: 320 g/ha, 3 weeks after application
In short: as §4

[4] = application herbicide amount 320 g/ha

SMILES | Herbicidal effect grade, C: Monochoria vaginalis (Monochoria vaginalis) | herbicidal effect on E, grade 0-5 (Cyperus difformis) | effect on crop b (directly sowed rice plant), grade 0-5 [1] | G: Setaria viridis, herbicidal effect grade (Setaria viridis) | L: Apera spica-venti, herbicidal effect grade (Apera spica-venti) | M: Abutilon theophrasti, herbicidal effect grade (Abutilon theophrasti) | N: Amaranthus retroflexus, herbicidal effect grade (Amaranthus retroflexus) | P: Stellaria media, herbicidal effect grade (Stellaria media) | b: directly sowed rice plant, effect grade on crop (rice) | e: wheat, effect grade on crop (wheat [2]) | F: Digitaria ciliaris, herbicidal effect (criteria 0-5) (Digitaria ciliaris) | I: Avena fatua, herbicidal effect (criteria 0-5) (Avena fatua) | J: Alopecurus myosuroides, herbicidal effect (criteria 0-5) (Alopecurus myosuroides) | d: soybean, effect on crop (criteria 0-5) (soybean) | e: wheat, effect on crop (criteria 0-5) (wheat [3]) | f: beet, effect on crop (criteria 0-5) (beet) | F: Digitaria ciliaris, herbicidal effect grade (Digitaria ciliaris) | I: Avena fatua, herbicidal effect grade (Avena fatua) | J: Alopecurus myosuroides, herbicidal effect grade (Alopecurus myosuroides) | d: soybean, effect on crop grade (soybean) | further results
CON=C(C)CC1CC(OC(=O)COc2ccc3ccccc3c2)=C(c2c(C)cc(C)cc2C)C1=O (stereo not shown) [1-083] | 3 (Herbicidal ratio of 40% or higher and lower than 70%) | 5 (Herbicidal ratio of 90% or more (almost completely withered)) | 3 (Herbicidal ratio of 40% or higher and lower than 70%) | 5 (Herbicidal ratio of 90% or more (almost completely withered)) | 5 (Herbicidal ratio of 90% or more (almost completely withered)) | 4 (Herbicidal ratio of 70% or higher and lower than 90%) | 5 (Herbicidal ratio of 90% or more (almost completely withered)) | 0 (Herbicidal ratio of 5% or lower (almost no effect)) | 5 (Herbicidal ratio of 90% or more (almost completely withered)) | 4 (Herbicidal ratio of 70% or higher and lower than 90%) | 5 (Herbicidal ratio of 90% or more (almost completely withered)) | 5 (Herbicidal ratio of 90% or more (almost completely withered)) | 5 (Herbicidal ratio of 90% or more (almost completely withered)) | 4 (Herbicidal ratio of 70% or higher and lower than 90%) | 5 (Herbicidal ratio of 90% or more (almost completely withered)) | 0 (Herbicidal ratio of 5% or lower (almost no effect)) |  |  |  |  | 
CON=C(C)CC1CC(OC(=O)C2=CCCC2)=C(c2c(C)cc(C)cc2C)C1=O (stereo not shown) [1-088] | 3 (Herbicidal ratio of 40% or higher and lower than 70%) | 5 (Herbicidal ratio of 90% or more (almost completely withered)) | 5 (Herbicidal ratio of 90% or more (almost completely withered)) | 5 (Herbicidal ratio of 90% or more (almost completely withered)) | 5 (Herbicidal ratio of 90% or more (almost completely withered)) | 0 (Herbicidal ratio of 5% or lower (almost no effect)) | 1 (Herbicidal ratio of 5% or higher and lower than 20%) | 0 (Herbicidal ratio of 5% or lower (almost no effect)) | 5 (Herbicidal ratio of 90% or more (almost completely withered)) | 3 (Herbicidal ratio of 40% or higher and lower than 70%) | 5 (Herbicidal ratio of 90% or more (almost completely withered)) | 5 (Herbicidal ratio of 90% or more (almost completely withered)) | 5 (Herbicidal ratio of 90% or more (almost completely withered)) | 3 (Herbicidal ratio of 40% or higher and lower than 70%) | 5 (Herbicidal ratio of 90% or more (almost completely withered)) | 0 (Herbicidal ratio of 5% or lower (almost no effect)) |  |  |  |  | 
CCCCCCCCC(=O)OC1=C(c2c(C)cc(C)cc2C)C(=O)C(CC(C)=NOC)C1 (stereo not shown) [1-033] | 2 (Herbicidal ratio of 20% or higher and lower than 40%) | 5 (Herbicidal ratio of 90% or more (almost completely withered)) | 5 (Herbicidal ratio of 90% or more (almost completely withered)) |  |  |  |  |  |  |  |  |  |  |  |  |  | 5 (Herbicidal ratio of 90% or more (almost completely withered)) | 5 (Herbicidal ratio of 90% or more (almost completely withered)) | 5 (Herbicidal ratio of 90% or more (almost completely withered)) | 4 (Herbicidal ratio of 70% or higher and lower than 90%) | G (Setaria viridis) herbicidal effect grade (Setaria viridis; [4]): 5 (Herbicidal ratio of 90% or more (almost completely withered)); L (Apera spica-venti) herbicidal effect grade (Apera spica-venti; [4]): 5 (Herbicidal ratio of 90% or more (almost completely withered)); M (Abutilon theophrasti) herbicidal effect grade (Abutilon theophrasti; [4]): 5 (Herbicidal ratio of 90% or more (almost completely withered)); N (Amaranthus retroflexus) herbicidal effect grade (Amaranthus retroflexus; [4]): 5 (Herbicidal ratio of 90% or more (almost completely withered)); P (Stellaria media) herbicidal effect grade (Stellaria media; [4]): 0 (Herbicidal ratio of 5% or lower (almost no effect)); b (directly sowed rice plant) effect on crop grade (rice; [4]): 5 (Herbicidal ratio of 90% or more (almost completely withered)); e (wheat) effect on crop grade (wheat [2]; [4]): 5 (Herbicidal ratio of 90% or more (almost completely withered)); e: wheat, effect on crop grade (wheat [3]): 5 (Herbicidal ratio of 90% or more (almost completely withered)); f: beet, effect on crop grade (beet): 3 (Herbicidal ratio of 40% or higher and lower than 70%)
CON=C(CC1CC(O)=C(c2c(C)cc(-n3cc(Cl)cn3)cc2C)C1=O)C(C)C (stereo not shown) [9-004] | 0 (Herbicidal ratio of 5% or lower (almost no effect)) |  |  |  |  |  |  |  |  |  |  |  |  |  |  |  | 5 (Herbicidal ratio of 90% or more (almost completely withered)) | 5 (Herbicidal ratio of 90% or more (almost completely withered)) | 5 (Herbicidal ratio of 90% or more (almost completely withered)) | 0 (Herbicidal ratio of 5% or lower (almost no effect)) | E herbicidal effect grade (Cyperus difformis; Table 24): 5 (Herbicidal ratio of 90% or more (almost completely withered)); b (directly sowed rice plant) effect on crop grade ([1]; Table 24): 5 (Herbicidal ratio of 90% or more (almost completely withered)); Herbicidal effect grade, G: Setaria viridis (Setaria viridis; [4]): 5 (Herbicidal ratio of 90% or more (almost completely withered)); Herbicidal effect grade, L: Apera spica-venti (Apera spica-venti; [4]): 5 (Herbicidal ratio of 90% or more (almost completely withered)); Herbicidal effect grade, M: Abutilon theophrasti (Abutilon theophrasti; [4]): 0 (Herbicidal ratio of 5% or lower (almost no effect)); Herbicidal effect grade, N: Amaranthus retroflexus (Amaranthus retroflexus; [4]): 0 (Herbicidal ratio of 5% or lower (almost no effect)); Herbicidal effect grade, P: Stellaria media (Stellaria media; [4]): 0 (Herbicidal ratio of 5% or lower (almost no effect)); Effect on crop grade, b: directly sowed rice plant (rice; [4]): 0 (Herbicidal ratio of 5% or lower (almost no effect)); Effect on crop grade, e: wheat (wheat [2]; [4]): 0 (Herbicidal ratio of 5% or lower (almost no effect)); e: wheat, effect on crop grade (wheat [3]): 3 (Herbicidal ratio of 40% or higher and lower than 70%); f: beet, effect on crop grade (beet): 0 (Herbicidal ratio of 5% or lower (almost no effect))
